This note sets out measurements from US20240301319A1, “PERFUMING COMPOSITIONS” (FIRMNICH SA, priority 2017, published 2024).

Like-named read-outs stand apart in the source and are kept apart here.

Series [1] in a line: Odor threshold and odor value of perfuming compounds (Tables 4 to 10).
Series [2] can be described thus: Volatility of perfuming compounds (Tables 4 to 10), with top/middle/bottom note type. Type of series: physicochemical. In outline: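 Volatility is expressed in μg/l in air. Top notes are 70,000 to 100 μg/l, middle notes 99 to 50 μg/l, and bottom notes 49 to 0.1 μg/l. Compounds are grouped by olfactive family: watery, green, fruity, citrus, sweet, gourmand and woody.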

Where [3] appears, read: Table 6, perfuming compounds having a fruity note.
Where [4] appears, read: perfuming compounds having a green note.
Where [5] appears, read: Table 6, perfuming compounds having a fruity note, note type by volatility.
Setting [6] is: note type (Top/Middle/Bottom) by volatility, perfuming compounds having a green note.
Where [7] appears, read: Table 4, watery note, equals volatility divided by odor threshold.
[8] abbreviates: Table 4, watery note, top, middle or bottom note.
Setting [9] is: Table 8, perfuming compounds having a sweet note.

With `CCCCCC/C(C=O)=C\c1ccccc1` [(2E)-2-benzylideneoctanal], in series [1] (setting [3]), the “Odor Threshold” value was found to be 1.91E−03 μg/l air and the “Odor Value” came to 6.01E+02. In series [1] (setting [4]), the “Odor Threshold (μg/l air)” value was determined as 1.91E−03 μg/l air. The compound further showed a Volatility in series [2] (setting [3]) of 1.15 μg/l air. In addition, the Type result in series [2] (setting [5]) is on record as “Bottom”. In series [2] (setting [6]), the Type result was “Bottom”. Besides, the “Volatility (μg/l air)” value in series [2] (setting [4]) stood at 1.15 μg/l air.

For the compound `CCCCCCCCCCCC#N` [DODECANENITRILE], in series [1] (Table 4, watery note), the “Odor Threshold (μg/l air)” value worked out at 3.20E−06 μg/l air. Further, the “Odor Value” in series [1] (setting [7]) came out at 1.77E+07. Also, the “Volatility (μg/l air)” value in series [2] (Table 4, watery note) stood at 56.74 μg/l air. In series [2] (setting [8]), the Type entry is listed as “middle (perfuming compounds having a volatility ranging from 99 to 50 μg/l in air are referred to as “middle notes”)”.

In the case of `CCCCOC(C)=O` [BUTYL ACETATE], the “Odor Threshold” value in series [1] (setting [9]) is given as 4.18E−01 μg/l air; in series [1] (Table 9, gourmand note) it was 4.18E−01 μg/l air. In addition, in series [1] (setting [9]), the “Odor Value” is reported as 2.80E+05. The Volatility in series [2] was 117207.52 μg/l air. For the same compound, the Type result in series [2] (setting [5]) was “TOP (perfuming compounds having a volatility ranging from 70,000 to 100 μg/l in air are referred to as “top notes”)”; in series [2] (Table 8, perfuming compounds having a sweet note, note type by volatility), “Top”; in series [2] (Table 9, perfuming compounds having a gourmand note, note type by volatility), “Top”.

With “(Z)-3,7-DIMETHYL-1,6-NONADIEN-3-OL (A) + (E)-3,7-DIMETHYL-1,6-NONADIEN-3-OL (B)”, in series [1] (Table 7, citrus note), the “Odor Threshold (μg/l air)” value is reported as 1.38E−03 μg/l air. Besides, the “Odor Value” in series [1] (Table 7, citrus note, equals volatility divided by odor threshold) is 2.05E+05. Also, in series [2] (Table 7, citrus note), the “Volatility (μg/l air)” value was 283.43 μg/l air. In series [2] (Table 7, citrus note, top, middle or bottom note), the Type result is given as “Top”.

For “3-(3,3-dimethyl-2,3-dihydro-1H-inden-5-yl)propanal (A) + 3-(1,1-dimethyl-2,3-dihydro-1H-inden-5-yl)propanal (B)”, the “Odor Threshold (μg/l air)” value in series [1] (Table 4, watery note) was determined as 1.32E−05 μg/l air. Moreover, the “Odor Value” in series [1] (setting [7]) was found to be 1.04E+06. Moreover, the “Volatility (μg/l air)” value in series [2] (Table 4, watery note) amounted to 13.73 μg/l air. In addition, the Type entry in series [2] (setting [8]) is recorded as “bottom (perfuming compounds having a volatility ranging from 49 to 0.1 μg/l in air are referred to as “bottom notes”)”.

For the compound `CCCCC/C=C\CCC=O` [(Z)-4-DECENAL], the “Odor Threshold (μg/l air)” value in series [1] (setting [4]) stood at 3.78E−05 μg/l air. Besides, the Type entry in series [2] (setting [6]) was “Top”. The “Volatility (μg/l air)” value in series [2] (setting [4]) amounted to 629.54 μg/l air.

As for `CCCC(=NO)C(C)C` [2-METHYL-3-HEXANONE OXIME], the “Odor Threshold (μg/l air)” value in series [1] (setting [4]) worked out at 4.81E−04 μg/l air. The Type entry in series [2] (setting [6]) is “Top”. The “Volatility (μg/l air)” value in series [2] (setting [4]) came to 687.75 μg/l air.

As for `CCCCCC(=O)OC` [METHYL HEXANOATE], in series [1] (setting [4]), the “Odor Threshold (μg/l air)” value was found to be 8.43E−02 μg/l air. In series [2] (setting [3]), this compound registered a Volatility of 23345.90 μg/l air. The Type entry was “TOP (perfuming compounds having a volatility ranging from 70,000 to 100 μg/l in air are referred to as “top notes”)” in series [2] (setting [5]) and “Top” in series [2] (setting [6]). For the same compound, the “Volatility (μg/l air)” value in series [2] (setting [4]) was determined as 23345.90 μg/l air.

For `CCCC(=O)OCC` [ETHYL BUTANOATE], the “Odor Threshold (μg/l air)” value in series [1] (setting [4]) came to 3.68E−04 μg/l air. Moreover, the Volatility in series [2] (setting [3]) was found to be 142519.74 μg/l air. The Type entry in series [2] (setting [5]) was “TOP (perfuming compounds having a volatility ranging from 70,000 to 100 μg/l in air are referred to as “top notes”)”; in series [2] (setting [6]), “Top”. Moreover, in series [2] (setting [4]), the “Volatility (μg/l air)” value worked out at 142519.74 μg/l air.

As to `CC1COCc2cc3c(cc21)C(C)(C)C(C)C3(C)C` (racemic), in series [1] (setting [3]), the “Odor Threshold” value worked out at 2.62E−04 μg/l air and the “Odor Value” is reported as 6.08E+03. Further, the Volatility in series [2] (setting [3]) is recorded as 1.59 μg/l air. Also, in series [2] (setting [5]), the Type result was “Bottom”.

On to `CCCCC[C@@H]1C(=O)CC[C@@H]1CC(=O)OC`, for which the “Odor Threshold” value in series [1] (Table 10, woody note) worked out at 2.82E−04 μg/l air. The Type entry in series [2] (Table 10, perfuming compounds having a woody note, note type by volatility) is on record as “Bottom”. Besides, in series [2] (Table 10, woody note), the Volatility came to 1.71 μg/l air.

As to “10-undecenal (A) + (9E)-9-undecenal (B) + (9Z)-9-undecenal (C)”, the “Odor Threshold (μg/l air)” value in series [1] (Table 4, watery note) worked out at 3.77E−05 μg/l air. The “Odor Value” in series [1] (setting [7]) is recorded as 3.50E+06. For the same compound, the “Volatility (μg/l air)” value in series [2] (Table 4, watery note) was 131.95 μg/l air. For the same compound, the Type result in series [2] (setting [8]) is listed as “TOP (perfuming compounds having a volatility ranging from 70,000 to 100 μg/l in air are referred to as “top notes”)”.

Consider `CCC(=O)OCC(C)(C)OC(C)C1CCCC(C)(C)C1` (single isomer, unassigned; (+)), for which, in series [1] (setting [3]), the “Odor Threshold” value was found to be 3.69E−04 μg/l air and the “Odor Value” was determined as 1.19E+04. In series [2] (setting [3]), the Volatility was found to be 4.39 μg/l air. Also, the Type entry in series [2] (setting [5]) is reported as “Bottom”.
